EC50 data for 18 compounds are collected here from patent US7989471B2, “Macrocyclic inhibitors of hepatitis C virus” (Tibotec Pharmaceuticals Ltd., priority 2005, dated 2011).

Usually EC50 stands for the midpoint of the concentration-response curve.

SMILES strings stand for the structures.

The subject of the first experiment is HCV replicons (NS3-NS5B regions of HCV type Ib) in Huh-7 luc/neo cells. As to the kind of experiment: HCV replicon assay (Huh-Luc luciferase reporter). It counts as cell-based. The note with it: Hepatitis C virus, Huh-7, 72 h. On the procedure:
The in vitro antiviral activity against HCV of the compounds of formula (I) was tested in a cellular HCV replicon system based on Lohmann et al. (1999) Science 285:110-113, with the further modifications described by Krieger et al. (2001) Journal of Virology 75: 4614-4624, which is further exemplified in the examples section. This model, while not a complete infection model for HCV, is widely accepted as the most robust and efficient model of autonomous HCV RNA replication currently available. […] It will be appreciated that it is important to distinguish between compounds that specifically interfere with HCV functions from those that exert cytotoxic or cytostatic effects in the HCV replicon model, and as a consequence cause a decrease in HCV RNA or linked reporter enzyme concentration. Assays are known in the field for the evaluation of cellular cytotoxicity based for example on the activity of mitochondrial enzymes using fluorogenic redox dyes such as resazurin. Furthermore, cellular counter screens exist for the evaluation of non-selective inhibition of linked reporter gene activity, such as firefly luciferase. Appropriate cell types can be equipped by stable transfection with a luciferase reporter gene whose expression is dependent on a constitutively active gene promoter, and such cells can be used as a counter-screen to eliminate non-selective inhibitors.
The compounds of formula (I) were examined for activity in the inhibition of HCV RNA replication in a cellular assay. […] The cellular assay was based on a bicistronic expression construct, as described by Lohmann et al. (1999) Science vol. 285 pp. 110-113 with modifications described by Krieger et al. (2001) Journal of Virology 75: 4614-4624, in a multi-target screening strategy. In essence, the method was as follows.
The assay utilized the stably transfected cell line Huh-7 luc/neo (hereafter referred to as Huh-Luc). This cell line harbors an RNA encoding a bicistronic expression construct comprising the wild type NS3-NS5B regions of HCV type Ib translated from an Internal Ribosome Entry Site (IRES) from encephalomyocarditis virus (EMCV), preceded by a reporter portion (FfL-luciferase), and a selectable marker portion (neo^R, neomycine phosphotransferase). The construct is bordered by 5′ and 3′ NTRs (non-translated regions) from HCV type Ib. Continued culture of the replicon cells in the presence of G418 (neo^R) is dependent on the replication of the HCV RNA. The stably transfected replicon cells that express HCV RNA, which replicates autonomously and to high levels, encoding inter alia luciferase, are used for screening the antiviral compounds.
The replicon cells were plated in 384 well plates in the presence of the test and control compounds which were added in various concentrations. Following an incubation of three days, HCV replication was measured by assaying luciferase activity (using standard luciferase assay substrates and reagents and a Perkin Elmer ViewLux™ ultraHTS microplate imager). Replicon cells in the control cultures have high luciferase expression in the absence of any inhibitor. The inhibitory activity of the compound on luciferase activity was monitored on the Huh-Luc cells, enabling a dose-response curve for each test compound.
`COc1ccc2c(O[C@@H]3C[C@H]4C(=O)N[C@]5(C(=O)O)C[C@H]5/C=C\CCCCCC(C)(C)C(=O)N4C3)cc(-c3nc(C(C)C)cs3)nc2c1Cl` [Compound 54, 18-[8-chloro-2-(4-isopropylthiazol-2-yl)-7-methoxyquinolin-4-yloxy]-14,14-dimethyl-2,15-dioxo-3,16-diazatricyclo[14.3.0.0^4,6]nonadec-7-ene-4-carboxylic acid]: the EC50 is at least 10000 nM.

Staying with this experiment, now noted: Hepatitis C virus, Huh-7, 72 h; Huh-Luc replicon cells, three days incubation, luciferase activity; read-out: EC50.
For the compound `COc1ccc2c(O[C@@H]3C[C@H]4C(=O)N[C@]5(C(=O)O)C[C@H]5/C=C\CCCCCCC(=O)N4C3)cc(-c3cscn3)nc2c1` [Compound 35, 18-[7-methoxy-2-(thiazol-4-yl)quinolin-4-yloxy]-2,15-dioxo-3,16-diazatricyclo[14.3.0.0^4,6]nonadec-7-ene-4-carboxylic acid], the EC50 is 1630 nM.

For `COc1ccc2c(O[C@@H]3C[C@H]4C(=O)N[C@]5(C(=O)O)C[C@H]5/C=C\CCCCCC(=O)N4C3)cc(-c3nc(C(C)C)cs3)nc2c1Cl` [Compound 56, 17-[8-chloro-2-(4-isopropylthiazol-2-yl)-7-methoxyquinolin-4-yloxy]-2,14-dioxo-3,15-diazatricyclo[13.3.0.0^4,6]octadec-7-ene-4-carboxylic acid], the EC50 came out at 318 nM.

For `COc1ccc2c(O[C@@H]3C[C@H]4C(=O)N[C@]5(C(=O)O)C[C@H]5/C=C\CCCCCCC(=O)N4C3)nc(-n3cccn3)cc2c1` [Compound 33, 18-[6-methoxy-3-(pyrazol-1-yl)isoquinolin-1-yloxy]-2,15-dioxo-3,16-diazatricyclo[14.3.0.0^4,6]nonadec-7-ene-4-carboxylic acid], the EC50 was 6100 nM.

For the compound `COc1ccc2c(O[C@@H]3C[C@H]4C(=O)N[C@]5(C(=O)NS(=O)(=O)C6CC6)C[C@H]5/C=C\CCCCCCC(=O)N4C3)cc(-c3nccs3)nc2c1Br` [Compound 42, N-[18-[8-bromo-2-(thiazol-2-yl)-7-methoxyquinolin-4-yloxy]-2,15-dioxo-3,16-diazatricyclo[14.3.0.0^4,6]nonadec-7-ene-4-carbonyl]-(cyclopropyl)sulfonamide], the EC50 is 2 nM.

With `COc1ccc2c(O[C@@H]3C[C@H]4C(=O)N[C@]5(C(=O)NS(=O)(=O)C6CC6)C[C@H]5/C=C\CCCCCC(C)(C)C(=O)N4C3)cc(-c3nc(C(C)C)cs3)nc2c1Cl` [Compound 55, N-[18-[8-chloro-2-(4-isopropylthiazol-2-yl)-7-methoxyquinolin-4-yloxy]-14,14-dimethyl-2,15-dioxo-3,16-diazatricyclo[14.3.0.0^4,6]nonadec-7-ene-4-carbonyl](cyclopropyl)sulfonamide], the EC50 worked out at 198 nM.

On to `COc1ccc2c(O[C@@H]3C[C@H]4C(=O)N[C@]5(C(=O)NS(=O)(=O)C6CC6)C[C@H]5/C=C\CCCCCC(=O)N4C3)cc(-c3nc(C(C)C)cs3)nc2c1Cl` [Compound 57, N-[17-[8-chloro-2-(4-isopropylthiazol-2-yl)-7-methoxyquinolin-4-yloxy]-2,14-dioxo-3,15-diazatricyclo[13.3.0.0^4,6]octadec-7-ene-4-carbonyl]-(cyclopropyl)sulfonamide], for which the half-maximal effective concentration (EC50) came out at 12 nM.

For the compound `COc1ccc2c(O[C@@H]3C[C@H]4C(=O)N[C@]5(C(=O)O)C[C@H]5/C=C\CCCCCCC(=O)N4C3)cc(-c3nc(C(C)C)cs3)nc2c1C` [Compound 29, 18-[2-(4-isopropylthiazol-2-yl)-7-methoxy-8-methylquinolin-4-yloxy]-2,15-dioxo-3,16-diazatricyclo[14.3.0.0^4,6]nonadec-7-ene-4-carboxylic acid], the EC50 was determined as 1960 nM.

Consider `COc1ccc2c(O[C@@H]3C[C@H]4C(=O)N[C@]5(C(=O)NS(=O)(=O)C6CC6)C[C@H]5/C=C\CCCCCC(=O)N4C3)cc(-c3nc(C(C)C)cs3)nc2c1` [Compound 63, N-[17-[2-(4-isopropylthiazol-2-yl)-7-methoxyquinolin-4-yloxy]-2,14-dioxo-3,15-diazatricyclo[13.3.0.0^4,6]octadec-7-ene-4-carbonyl]-(cyclopropyl)sulfonamide], for which the EC50 is 24 nM.

Take `COc1ccc2c(O[C@@H]3C[C@H]4C(=O)N[C@]5(C(=O)O)C[C@H]5/C=C\CCCCCCC(=O)N4C3)cc(-c3csc(NC(C)C)n3)nc2c1` [Compound 12, 18-[2-[2-(isopropylamino)thiazol-4-yl]-7-methoxyquinolin-4-yloxy]-2,15-dioxo-3,16-diazatricyclo[14.3.0.0^4,6]nonadec-7-ene-4-carboxylic acid]: the EC50 is 1980 nM.

As to `COc1ccc2c(O[C@@H]3C[C@H]4C(=O)N[C@]5(C(=O)NS(=O)(=O)C6CC6)C[C@H]5/C=C\CCCCCCC(=O)N4C3)cc(-c3nccs3)nc2c1` [Compound 32, N-[18-[7-methoxy-2-(thiazol-2-yl)quinolin-4-yloxy]-2,15-dioxo-3,16-diazatricyclo[14.3.0.0^4,6]nonadec-7-ene-4-carbonyl](cyclopropyl)-sulfonamide], the half-maximal effective concentration (EC50) was found to be 17 nM.

For `COc1ccc2c(O[C@@H]3C[C@H]4C(=O)N[C@]5(C(=O)O)C[C@H]5/C=C\CCCCCCC(=O)N4C3)cc(-c3nccs3)nc2c1Br` [Compound 41, 18-[8-bromo-7-methoxy-2-(thiazol-2-yl)quinolin-4-yloxy]-2,15-dioxo-3,16-diazatricyclo[14.3.0.0^4,6]nonadec-7-ene-4-carboxylic acid], the EC50 was 280 nM.

`COc1ccc2c(O[C@@H]3C[C@H]4C(=O)N[C@]5(C(=O)NS(=O)(=O)C6CC6)C[C@H]5/C=C\CCCCCCC(=O)N4C3)cc(-c3nc(C(C)C)cs3)nc2c1C` [Compound 30, N-[18-[2-(4-isopropylthiazol-2-yl)-7-methoxy-8-methylquinolin-4-yloxy]-2,15-dioxo-3,16-diazatricyclo[14.3.0.0^4,6]nonadec-7-ene-4-carbonyl](cyclopropyl)sulfonamide]: the EC50 stood at 6 nM.

As to `COc1ccc2c(O[C@@H]3C[C@H]4C(=O)N[C@]5(C(=O)NS(=O)(=O)C6(C)CC6)C[C@H]5/C=C\CCCCCC(=O)N4C3)cc(-c3nc(C(C)C)cs3)nc2c1Cl` [Compound 61, N-[17-[8-chloro-2-(4-isopropylthiazol-2-yl)-7-methoxyquinolin-4-yloxy]-2,14-dioxo-3,15-diazatricyclo[13.3.0.0^4,6]octadec-7-ene-4-carbonyl]-(1-methylcyclopropyl)sulfonamide], the EC50 was 1 nM.

As to `COc1ccc2c(O[C@@H]3C[C@H]4C(=O)N[C@]5(C(=O)NS(=O)(=O)C6(C)CC6)C[C@H]5/C=C\CCCCCC(=O)N4C3)cc(-c3nc(C(C)C)cs3)nc2c1C` [Compound 60, N-[17-[2-(4-isopropylthiazol-2-yl)-7-methoxy-8-methylquinolin-4-yloxy]-2,14-dioxo-3,15-diazatricyclo[13.3.0.0^4,6]octadec-7-ene-4-carbonyl]-(1-methylcyclopropyl)sulfonamide], the EC50 came out at 14 nM.

Turning to `COc1ccc2c(O[C@@H]3C[C@H]4C(=O)N[C@]5(C(=O)NS(=O)(=O)C6CC6)C[C@H]5/C=C\CCCCCCC(=O)N4C3)cc(-c3nccs3)nc2c1C` [Compound 26, N-[18-[2-(thiazol-2-yl)-7-methoxy-8-methylquinolin-4-yloxy]-2,15-dioxo-3,16-diazatricyclo[14.3.0.0^4,6]nonadec-7-ene-4-carbonyl]-(cyclopropyl)sulfonamide], the EC50 came out at 4 nM.

With `COc1ccc2c(O[C@@H]3C[C@H]4C(=O)N[C@]5(C(=O)NS(=O)(=O)C6CC6)C[C@H]5CCCCCCCC(=O)N4C3)cc(-c3nc(C(C)C)cs3)nc2c1` (stereo in doubt) [Compound 64, N-[17-[2-(4-isopropylthiazol-2-yl)-7-methoxyquinolin-4-yloxy]-2,14-dioxo-3,15-diazatricyclo[13.3.0.0^4,6]octadecane-4-carbonyl]-(cyclopropyl)sulfonamide], the concentration for a half-maximal effect (EC50) was determined as 67 nM.

As for `COc1ccc2c(O[C@@H]3C[C@H]4C(=O)N[C@]5(C(=O)O)C[C@H]5/C=C\CCCCCC(=O)N4C3)cc(-c3nc(C(C)C)cs3)nc2c1C` [Compound 58, 17-[2-(4-isopropylthiazol-2-yl)-7-methoxy-8-methylquinolin-4-yloxy]-2,14-dioxo-3,15-diazatricyclo[13.3.0.0^4,6]octadec-7-ene-4-carboxylic acid], the EC50 amounted to 1600 nM.
